Results from ChEMBL document CHEMBL5550176, “Destruxin E backbone modification effects on osteoclast Morphology: Synthesis and SAR study of N-Desmethyl and N-Methyl analogs” (2024).
Numbered stars: 1 amine (or outer) side, 2 acyl side, 3 side chain; on linkers, the order of the positions; unused ones are H or OH. Square brackets hold non-standard residues; d marks the D form. Peptide text beside a SMILES is read from it. X1 = O=C([C@@H](C[C@H]1CO1)O[*:1])[*:2]; NMeI = CC[C@H](C)[C@H](NC)C(=O)O; NMeβAla = CN(CCC(=O)[*:2])[*:1]; NMeV = CN[C@H](C(=O)O)C(C)C; NMeA = CN[C@@H](C)C(=O)O; βAla = NCCC(=O)O

The compounds below were run on Osteoclast (assay: Induction of morphological changes in mouse Osteoclast cells incubated for 24 hrs by TRAP staining based fluorescence microscopy analysis).
Assay type: functional
In the case of CC[C@H](C)[C@@H]1NC(=O)[C@@H]2CCCN2C(=O)[C@@H](C[C@H]2CO2)OC(=O)CCNC(=O)[C@H](C)NC(=O)[C@H](C(C)C)N(C)C1=O (cyclo(A[βAla][X1]PI[NMeV])), the Activity is reported as greater than 50 µM. Work on CC[C@H](C)[C@H]1C(=O)N(C)[C@@H](C(C)C)C(=O)N(C)[C@@H](C)C(=O)NCCC(=O)O[C@H](C[C@H]2CO2)C(=O)N2CCC[C@H]2C(=O)N1C (cyclo([NMeA][βAla][X1]P[NMeI][NMeV])) yielded an Activity of 12.5 µM. For CC[C@H](C)[C@@H]1NC(=O)[C@@H]2CCCN2C(=O)[C@@H](C[C@H]2CO2)OC(=O)CCN(C)C(=O)[C@H](C)N(C)C(=O)[C@H](C(C)C)N(C)C1=O (cyclo(I[NMeV][NMeA][NMeβAla][X1]P)), the Activity was 50 µM. Work on CC[C@H](C)[C@@H]1NC(=O)[C@@H]2CCCN2C(=O)[C@@H](C[C@H]2CO2)OC(=O)CCNC(=O)[C@H](C)N(C)C(=O)[C@H](C(C)C)NC1=O (cyclo(IV[NMeA][βAla][X1]P)) yielded an Activity of 1.6 µM.
